# Measurements: patent publication US10144746B2 (GLOBAL BLOOD THERAPEUTICS, INC., priority 2015, dated 2018)
# Molecular target: Human plasma kallikrein (Homo sapiens (Human), UniProt P03952)
# Experiment: In vitro plasma kallikrein inhibition assay (chromogenic substrate D-Pro-Phe-Arg-pNa, absorbance at 405 nm, IC50 determination)
# Type: biochemical
# Settings: not given
# Protocol: In Vitro Plasma Kallikrein Inhibition Assay
# The chromogenic substrate D-Pro-Phe-Arg-pNa, 2HCl (BIOPHEN CS-31(02) from Hyphen BioMed, Neuville-Sur-oise, France) was dissolved in 5 mL deionized water and stored at 4° C. […] All other chemicals were of analytical grade.
# A stock solution of 7 μM in 50% glycerol was stored at −20° C.
# Enzyme reactions were conducted in “assay buffer” comprised of 20 mM HEPES at pH 7.4, 150 mM NaCl, 0.1% PEG-8000 and 0.01% Triton X-100.
# Both enzyme and substrate were diluted in assay buffer.
# Plate measurements were conducted using a SPECTROStar Nano reader (BMG Labtech, San Francisco, Calif., USA). […] We used discrete wavelength, precise, kinetic reads of 15 cycles with a 60 sec cycle time.
# Determination of IC50 values
# The test compound was dissolved in 100% DMSO. The compounds were serially diluted in DMSO in a 7 point dose response. For the assays, 66.5 μL of protease solution (protease in assay buffer) was added per well followed by the addition of 8.5 μL of compound in 100% DMSO. […] After 30 min. incubation at room temperature on an orbital shaker, the reactions were started by the addition of 10 μL substrate solution (in assay buffer, final assay concentration was 600 uM). After the addition of the substrate solution the final DMSO concentration was 10%. The plate was placed again on the shaker for 5 sec, spun at 2000 rpm for 5 sec and read on the spectrophotometer. […] The IC50 value was calculated from the plot of rate vs. inhibitor concentration by a 4 parameter logistic equation: y=A+((B−A)/([…]))
# where y is the rate at the inhibitor concentration, x. A is the minimum y value at the highest inhibitor concentration and B is the y value in the absence of inhibitor, C is the IC50 value and D is the slope factor. The curve fitting was conducted with the non-linear regression routine of the analysis software XLfit (IDBS, version 5.3.1).
# Sequence of Human plasma kallikrein (P03952 391-638): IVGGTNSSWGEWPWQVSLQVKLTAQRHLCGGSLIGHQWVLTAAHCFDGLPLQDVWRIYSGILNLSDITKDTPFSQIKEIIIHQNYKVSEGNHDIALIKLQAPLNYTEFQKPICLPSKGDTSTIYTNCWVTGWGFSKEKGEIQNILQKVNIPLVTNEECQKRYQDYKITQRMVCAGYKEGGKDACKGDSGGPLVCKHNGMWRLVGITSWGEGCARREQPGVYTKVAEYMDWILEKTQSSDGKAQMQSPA
# Sequence of Human plasma kallikrein (P03952 20-390 partner): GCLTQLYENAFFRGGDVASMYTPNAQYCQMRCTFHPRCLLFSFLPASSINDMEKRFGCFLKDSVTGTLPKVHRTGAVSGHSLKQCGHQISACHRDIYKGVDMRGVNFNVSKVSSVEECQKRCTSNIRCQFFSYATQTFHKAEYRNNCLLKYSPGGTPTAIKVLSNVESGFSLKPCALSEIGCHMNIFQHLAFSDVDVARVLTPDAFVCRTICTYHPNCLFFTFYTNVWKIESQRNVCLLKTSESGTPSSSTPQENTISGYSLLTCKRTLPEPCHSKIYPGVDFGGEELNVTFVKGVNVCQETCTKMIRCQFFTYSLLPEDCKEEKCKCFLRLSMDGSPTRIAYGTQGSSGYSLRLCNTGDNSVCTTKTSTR
row,Compound,KLKB1 pIC50
1,"CON=C(N)c1ccc(CNC(=O)c2ccc3c(c2)[C@@H]2O[C@H]3c3ccc(-c4ccc(Cl)s4)cc32)cc1 [Example 251, (1S,8R)-12-(5-chlorothiophen-2-yl)-N-({4-[N′-methoxycarbamimidoyl]phenyl}methyl)-15-oxatetracyclo[6.6.1.0^2,^7.0^9,1^4] pentadeca-2,4,6,9,11,13-hexaene-4-carboxamide]",4
2,"(±)-N-[(6-amino-2,4-dimethyl- pyridin-3-yl)methyl]-12-(2,4- difluorophenyl)-11-methyl-15- oxatetracyclo[6.6.1.0^2,^7.0^9,1^4] pentadeca-2,4,6,9(14),10,12- hexaene-4-carboxamide and (±)-N-[(6-amino-2,4- dimethylpyridin-3-yl)methyl]-11- (2,4-difluorophenyl)-12- methyl-15-oxatetracyclo [6.6.1.0^2,^7.0^9,1^4]pentadeca- 2,4,6,9(14),10,12-hexaene-4- carboxamide [Example 310]",7.7
3,"(±)-N-[(6-amino-2,4-dimethyl- pyridin-3-yl)methyl]-12-(2,4- difluorophenyl)-11-ethenyl-15- oxatetracyclo[6.6.1.0^2,^7.0^9,1^4] pentadeca-2,4,6,9,11,13- hexaene-4-carboxamide and (±)-N-[(6-amino-2,4- dimethylpyridin-3-yl)methyl]- 11-(2,4-difluorophenyl)-12- ethenyl-15-oxatetraoyclo [6.6.1.0^2,^7.0^9,1^4]pentadeca- 2,4,6,9,11,13-hexaene-4- carboxamide [Example 322]",8.57

# Same assay, conditions: read-out: KLKB1 pIC50 (converted)
row,Compound,IC50 [nM]
1,"N=C(N)c1ccc(CNC(=O)c2ccc3c(c2)[C@@H]2O[C@H]3c3ccc(Oc4cccc(F)c4)cc32)cc1 (single isomer, unassigned) [Example 231]",33.9
2,"NC(=O)c1cccc(CNC(=O)c2ccc3c(c2)[C@@H]2O[C@H]3c3ccc(-c4ccc(F)cc4F)cc32)c1 (single isomer, unassigned) [Example 292]",100000
3,"Cc1cc2c(cc1C)C1OC2c2ccc(C(=O)NCc3c(C)cc(N)nc3C)cc21 (racemic) [Example 308, (±)-N-[(6-amino-2,4-dimethyl-pyridin-3-yl)methyl]-11,12-dimethyl-15-oxatetracyclo [6.6.1.0^2,^7.0^9,1^4]pentadeca-2,4,6,9(14),10,12-hexaene-4-carboxamide]",224
4,"Cc1cc(C(=N)N)cc(C)c1CNC(=O)c1ccc2c(c1)[C@@H]1O[C@H]2c2ccc(C3CC3)cc21 (single isomer, unassigned) [Example 331]",1
5,Cc1cc(N)nc(C)c1CNC(=O)c1ccc2c(c1)C1OC2c2ccccc21 (racemic) [Example 1],6310
6,"Cc1cc(N)nc(C)c1CNC(=O)c1ccc2c(c1)[C@@H]1O[C@H]2c2cc(-c3ccccc3F)ccc21 (single isomer, unassigned) [Example 130]",195
7,"N=C(N)c1ccc(CNC(=O)c2ccc3c(c2)[C@@H]2O[C@H]3c3ccc(Br)cc32)cc1 (single isomer, unassigned) [Example 206]",37.2
8,"Cc1cc(N)nc(C)c1CNC(=O)c1ccc2c(c1)C1OC2c2ccc(-c3ccc4[nH]cnc4c3)cc21 (racemic) [Example 123, (±)-N-[(6-amino-2,4-dimethylpyridin-3-yl)-methyl]-12-(1H-1,3-benzodiazol-5-yl)-15-oxatetracyclo[6.6.1.0^2,^7.0^9,1^4] pentadeca-2,4,6,9,11,13-hexaene-4-carboxamide]",282
9,"COc1cc(N)nc(C)c1CNC(=O)c1ccc2c(c1)C1OC2c2ccc(Cn3cc(C)cn3)cc21 (racemic) [Example 132, (±)-N-[(6-amino-4-methoxy-2-methylpyridin-3-yl)methyl]-12-[(4-methyl-1H-pyrazol-1-yl)-methyl]-15-oxatetracyclo[6.6.1.0^2,^7.0^9,1^4]-pentadeca-2,4,6,9,11,13-hexaene-4-carboxamide]",2
10,"Cc1nc(N)cc(C(C)C)c1CNC(=O)c1ccc2c(c1)C1OC2c2ccc(-c3ccc(F)cc3F)cc21 (racemic) [Example 173, (±)-N-{[6-amino-2-methyl-4-(propan-2-yl)pyridin-3-yl]methyl}-12-(2,4-difluorophenyl)-15-oxatetra-cyclo[6.6.1.0^2,^7.0^9,1^4]pentadeca-2,4,6,9,11,13-hexaene-4-carboxamide]",3.02
11,"N=C(N)c1ccc(CNC(=O)c2ccc3c(c2)[C@@H]2O[C@H]3c3cc(C4CC4)c(C4CC4)cc32)cc1 (single isomer, unassigned) [Example 400]",1
12,"C=C(C)c1cc(N)nc(C)c1CNC(=O)c1ccc2c(c1)[C@@H]1O[C@H]2c2ccc(-c3ccc(F)cc3F)cc21 (single isomer, unassigned) [Example 227]",12
13,"Cc1ccc(-c2ccc3c(c2)C2OC3c3ccc(C(=O)NCc4c(C)cc5c(c4C)CNC5)cc32)c(C#N)c1 (racemic) [Example 137, (±)-12-(2-cyano-4-methylphenyl)-N-[(4,6-dimethyl-2,3-dihydro-1H-isoindol-5-yl)methyl]-15-oxatetracyclo[6.6.1.0^2,^7.0^9,1^4] pentadeca-2,4,6,9,11,13-hexaene-4-carboxamide]",437
14,"Cc1cc(N)nc(C)c1CNC(=O)c1ccc2c(c1)[C@@H]1O[C@H]2c2ccc(-n3c(=O)ccn3C)cc21 (single isomer, unassigned) [Example 186]",1820
15,"CN(C)C(=NC(=N)c1ccc(CNC(=O)c2ccc3c(c2)C2OC3c3ccc(-c4ccccc4)cc32)cc1)N(C)C (racemic) [Example 190, (±)-N-{[4-({[bis(dimethylamino)methylidene]-amino}methanimidoyl)phenyl]methyl}-12-phenyl-15-oxatetracyclo[6.6.1.0^2,^7.0^9,1^4] pentadeca-2,4,6,9,11,13-hexaene-4-carboxamide]",129
16,"Cc1cc(N)nc(C)c1CNC(=O)c1cc(F)c2c(c1)C1OC2c2cc(-c3ccc(F)cc3)cc(C)c21 (racemic) [Example 398, N-[(6-amino-2,4-dimethyl-pyridin-3-yl)methyl]-6-fluoro-11-(4-fluorophenyl)-13-methyl-15-oxatetracyclo[6.6.1.0^2,^7.0^9,1^4] pentadeca-2,4,6,9(14),10,12-hexaene-4-carboxamide]",398
17,"COc1cc(N)nc(C)c1CNC(=O)c1ccc2c(c1)C1OC2c2ccc(Cn3cccn3)cc21 (racemic) [Example 117, (±)-N-[(6-amino-4-methoxy-2-methylpyridin-3-yl)methyl]-12-[(1H-pyrazol-1-yl)methyl]-15-oxatetracyclo[6.6.1.0^2,^7.0^9,1^4] pentadeca-2,4,6,9,11,13-hexaene-4-carboxamide]",3.98
18,"N=C(N)c1ccc(CNC(=O)c2ccc3c(c2)[C@@H]2O[C@H]3c3ccc(N4CC5CCC(C4)O5)cc32)cc1 (single isomer, unassigned) [Example 232]",38.9
19,"Cc1cc(N)nc(C)c1CNC(=O)c1ccc2c(c1)[C@@H]1O[C@H]2c2ccc(C(=O)N(C)c3ccc(F)cc3)cc21 (single isomer, unassigned) [Example 196]",4680
20,"CCN(c1cccc(F)c1)c1ccc2c(c1)[C@H]1O[C@@H]2c2ccc(C(=O)NCc3c(C)cc(N)nc3C)cc21 (single isomer, unassigned) [Example 230]",12
21,"Cc1cc(N)nc(C)c1CNC(=O)c1ccc2c(c1)C1OC2c2ccc(Oc3ccc(F)c(F)c3)cc21 (racemic) [Example 122, (±)-N-[(6-amino-2,4-dimethylpyridin-3-yl)-methyl]-12-(3,4-difluorophenoxy)-15-oxatetracyclo[6.6.1.0^2,^7.0^9,1^4] pentadeca-2,4,6,9,11,13-hexaene-4-carboxamide]",148
22,"CCOC(=O)N=C(N)c1ccc(CNC(=O)c2ccc3c(c2)[C@@H]2O[C@H]3c3ccc(-c4ccc(F)cc4F)cc32)cc1 (single isomer, unassigned) [Example 273]",6030
23,"CCc1cc(N)nc(C)c1CNC(=O)c1ccc2c(c1)[C@@H]1O[C@H]2c2ccc(-c3ccc(F)cc3F)cc21 (single isomer, unassigned) [Example 183]",12
24,"N=C(N)c1cccc(NC(=O)c2ccc3c(c2)[C@@H]2O[C@H]3c3ccc(-c4ccc(F)cc4F)cc32)c1 (single isomer, unassigned) [Example 258]",10000
25,"Cc1cc(N)nc(C)c1CNC(=O)c1ccc2c(c1)C1OC2c2ccc(-n3ccc(=O)cc3)cc21 (racemic) [Example 149, (±)-N-[(6-amino-2,4-dimethylpyridin-3-yl]-methyl]-12-(4-oxo-1,4-dihydropyridin-1-yl)-15-oxatetracyclo[6.6.1.0^2,^7.0^9,1^4] pentadeca-2,4,6,9,11,13-hexaene-4-carboxamide]",5890
26,"COc1ncccc1-c1ccc2c(c1)[C@H]1O[C@@H]2c2ccc(C(=O)NCc3c(C)cc(N)nc3C)cc21 (single isomer, unassigned) [Example 213]",676
